In PubChem BioAssay AID1845212 (Molecular Pharmacology Branch, DTP, NCI, 2023):
Values joined by “and” are separate entries in the source; they are usually repeats but may differ in a detail not shown here. Identical values can stand only once.

Test system: NCI-H719 tumor spheroids, viability
Experiment: Anticancer human tumor NCI-H719 cell line growth inhibition;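 also: spheroids exposed to compounds for seven days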;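 as to viability, T/C: percent viability relative to DMSO vehicle control as 100%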
Conditions: spheroids with HUVEC and MSC; for viability, T/C: stronger effect = lower value
Procedure, shortened: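 Complex tumor spheroids combined malignant cells with endothelial cells and mesenchymal stem cells. DNA-damaging drugs and DNA repair inhibitors were tested alone and in combination, at half-log dilutions down from clinical Cmax (top 10 microM if Cmax unknown), 0.25% DMSO final.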

[1] = curve of first compound, second compound 30 pM
[2] = curve of first compound, second compound 94.9 pM
[3] = curve of first compound, second compound 0.0003 µM
[4] = curve of first compound, second compound 0.000949 µM
[5] = curve of first compound, second compound 0.003 µM
[6] = second compound 30 pM, first compound 0.0316 µM
[7] = second compound 30 pM, first compound 0.1 µM
[8] = second compound 30 pM, first compound 0.316 µM
[9] = second compound 30 pM, first compound 1 µM
[10] = second compound 30 pM, first compound 3.16 µM
[11] = second compound 30 pM, first compound 10 µM
[12] = second compound 94.9 pM, first compound 0.0316 µM
[13] = second compound 94.9 pM, first compound 0.1 µM
[14] = second compound 94.9 pM, first compound 0.316 µM
[15] = second compound 94.9 pM, first compound 1 µM
[16] = second compound 94.9 pM, first compound 3.16 µM
[17] = second compound 94.9 pM, first compound 10 µM
[18] = second compound 0.0003 µM, first compound 0.0316 µM
[19] = second compound 0.0003 µM, first compound 0.1 µM
[20] = second compound 0.0003 µM, first compound 0.316 µM
[21] = second compound 0.0003 µM, first compound 1 µM
[22] = second compound 0.0003 µM, first compound 3.16 µM
[23] = second compound 0.0003 µM, first compound 10 µM
[24] = second compound 0.000949 µM, first compound 0.0316 µM
[25] = second compound 0.000949 µM, first compound 0.1 µM
[26] = second compound 0.000949 µM, first compound 0.316 µM
[27] = second compound 0.000949 µM, first compound 1 µM
[28] = second compound 0.000949 µM, first compound 3.16 µM
[29] = second compound 0.000949 µM, first compound 10 µM
[30] = second compound 0.003 µM, first compound 0.0316 µM
[31] = second compound 0.003 µM, first compound 0.1 µM
[32] = second compound 0.003 µM, first compound 0.316 µM
[33] = second compound 0.003 µM, first compound 1 µM
[34] = second compound 0.003 µM, first compound 3.16 µM
[35] = second compound 0.003 µM, first compound 10 µM

COc1cc(C)[nH]c(=O)c1CN1CCc2c(Cl)cc(C(OC)C3COC3)c(Cl)c2C1=O (stereo unspecified) + COc1cc2c(cc1O)CCNC21CSC2c3c(OC(C)=O)c(C)c4c(c3C(COC1=O)N1C(O)C3Cc5cc(C)c(OC)c(O)c5C(C21)N3C)OCO4
IC50 [1]: > 10 µM | IC50 [2]: < 0.0316 µM | IC50 [3]: < 0.0316 µM | IC50 [4]: < 0.0316 µM | IC50 [5]: < 0.0316 µM | viability, T/C [6]: 91.6% | viability, T/C [7]: 85% | viability, T/C [8]: 88.3% | viability, T/C [9]: 95.7% | viability, T/C [10]: 90.9% | viability, T/C [11]: 82.9% | viability, T/C [12]: 39.9% | viability, T/C [13]: 42.6% | viability, T/C [14]: 43.9% | viability, T/C [15]: 31.1% | viability, T/C [16]: 32.4% | viability, T/C [17]: 50.6% | viability, T/C [18]: 13.2% | viability, T/C [19]: 6.14% | viability, T/C [20]: 8.15% | viability, T/C [21]: 5.96% | viability, T/C [22]: 6.6% | viability, T/C [23]: 7.13% | viability, T/C [24]: 6.97% | viability, T/C [25]: 6.88% | viability, T/C [26]: 8.11% | viability, T/C [27]: 6.65% | viability, T/C [28]: 6.56% | viability, T/C [29]: 6.23% | viability, T/C [30]: 0.23% | viability, T/C [31]: 0.35% | viability, T/C [32]: 0.34% | viability, T/C [33]: 0.86% | viability, T/C [34]: 0.34% | viability, T/C [35]: 0.93%

Cc1cc(C)c(CNC(=O)c2cc(-c3ccc(CN4CCOCC4)cc3)cc3c2cnn3C2CCCC2)c(=O)[nH]1 + COc1cc2c(cc1O)CCNC21CSC2c3c(OC(C)=O)c(C)c4c(c3C(COC1=O)N1C(O)C3Cc5cc(C)c(OC)c(O)c5C(C21)N3C)OCO4
IC50 [1]: > 10 µM | IC50 [2]: < 0.0316 µM | IC50 [3]: < 0.0316 µM | IC50 [4]: < 0.0316 µM | IC50 [5]: < 0.0316 µM | viability, T/C [6]: 90.3% | viability, T/C [7]: 100% | viability, T/C [8]: 92.1% | viability, T/C [9]: 78.7% | viability, T/C [10]: 83.1% | viability, T/C [11]: 56.2% | viability, T/C [12]: 24% | viability, T/C [13]: 26.2% | viability, T/C [14]: 37.6% | viability, T/C [15]: 25.5% | viability, T/C [16]: 40.4% | viability, T/C [17]: 32.2% | viability, T/C [18]: 6.57% | viability, T/C [19]: 8.67% | viability, T/C [20]: 7.48% | viability, T/C [21]: 8.65% | viability, T/C [22]: 11.9% | viability, T/C [23]: 6.02% | viability, T/C [24]: 6.46% | viability, T/C [25]: 7.33% | viability, T/C [26]: 6.11% | viability, T/C [27]: 6.61% | viability, T/C [28]: 7.09% | viability, T/C [29]: 4.83% | viability, T/C [30]: 0.34% | viability, T/C [31]: 0.8% | viability, T/C [32]: 0.7% | viability, T/C [33]: 1.08% | viability, T/C [34]: 0.44% | viability, T/C [35]: 0.8%

CC(C)n1c(=O)n(C)c2cnc3cc(F)c(-c4ccc(OCCCN5CCCCC5)nc4)cc3c21
viability, T/C (compound 0.0316 µM): 82.1% and 106% and 81.7% | viability, T/C (compound 0.1 µM): 93.8% and 98.1% and 94.4% | viability, T/C (compound 0.316 µM): 116% and 107% and 117% | viability, T/C (compound 1 µM): 81.4% and 94.8% and 103% | viability, T/C (compound 3.16 µM): 85.7% and 142% and 110% | viability, T/C (compound 10 µM): 108% and 104% and 123% | IC50 (curve of compound): > 10 µM

Cc1sc2c(c1C)C(c1ccc(Cl)cc1)=NC(CC(=O)Nc1ccc(O)cc1)c1nnc(C)n1-2 (stereo unspecified)
viability, T/C (compound 0.00949 µM): 95.3% and 98.3% and 94.6% | viability, T/C (compound 0.03 µM): 95.8% and 95.1% and 102% | viability, T/C (compound 0.0949 µM): 47.7% and 63.8% and 60.6% | viability, T/C (compound 0.3 µM): 22.9% and 31% and 24.5% | viability, T/C (compound 0.949 µM): 4.99% and 4.88% and 4.46% | viability, T/C (compound 3 µM): 3.39% and 2.12% and 2.52% | IC50 (curve of compound): 0.104 µM and 0.156 µM and 0.14 µM

CC1COCCN1c1cc(-c2ccnn2C)c2ccnc(-c3ccn[nH]3)c2n1 (stereo unspecified)
viability, T/C (compound 0.0316 µM): 59.9% and 73.9% and 62.1% | viability, T/C (compound 0.1 µM): 60.1% and 43.6% and 50.1% | viability, T/C (compound 0.316 µM): 23.8% and 26.8% and 29.1% | viability, T/C (compound 1 µM): 11.2% and 14.3% and 10.5% | viability, T/C (compound 3.16 µM): 11.6% and 8.2% and 8.17% | viability, T/C (compound 10 µM): 13.3% and 9.71% and 10.8% | IC50 (curve of compound): 0.137 µM and 0.0804 µM and 0.106 µM
